According to BindingDB's records for doi:10.7270/Q2TX3CTT (Broad Institute, 2010):

Molecular target: Glycogen synthase kinase-3 beta (Homo sapiens, UniProt P49841)
Assay: concentration-response blocking of human GSK3B – biochemical, luminescence, cell-free homogeneous, retest, dose response (AID 434954)

Glycogen synthase kinase-3 beta, sequence (P49841 whole entry): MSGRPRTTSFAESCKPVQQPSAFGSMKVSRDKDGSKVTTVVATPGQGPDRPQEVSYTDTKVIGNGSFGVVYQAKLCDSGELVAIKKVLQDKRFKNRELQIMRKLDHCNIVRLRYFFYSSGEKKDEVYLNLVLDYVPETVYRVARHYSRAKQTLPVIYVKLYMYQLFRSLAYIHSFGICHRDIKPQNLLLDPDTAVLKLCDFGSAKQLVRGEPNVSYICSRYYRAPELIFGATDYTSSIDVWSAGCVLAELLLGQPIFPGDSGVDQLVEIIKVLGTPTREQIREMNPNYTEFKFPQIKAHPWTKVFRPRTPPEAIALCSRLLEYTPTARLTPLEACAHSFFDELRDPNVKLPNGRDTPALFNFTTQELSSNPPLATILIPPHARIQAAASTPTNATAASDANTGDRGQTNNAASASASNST

Row | Structure (SMILES) | EC50 [µM]
1 | C=CCNC(=S)NN=Cc1cn(-c2ccccc2)nc1-c1ccc(OC)cc1 [SMR000212115] | 42.5
2 | CCOC(=O)C1C(C)=Nc2ncnn2C1c1cccs1 (stereo not given) | 57.9
3 | COc1ccc(Nc2nc3ccccc3s2)cc1 [1,3-benzothiazol-2-yl-(4-methoxyphenyl)amine] | > 300
4 | Cc1ccc(-c2nn(-c3ccccc3)cc2C=Nn2c(-c3cccs3)n[nH]c2=S)cc1 [4-({[3-(4-methylphenyl)-1-phenyl-1H-pyrazol-4-yl]methylene}amino)-5-(2-thienyl)-2,4-dihydro-3H-1,2,4-triazole-3-thione] | > 300
5 | OC(c1ccccc1)c1ccncc1 (stereo not given) [phenyl(pyridin-4-yl)methanol] | > 300
6 | O=C(O)C1C2C=CC(O2)C1C(=O)NCc1ccc(Cl)cc1 (stereo not given) [3-{[(4-chlorobenzyl)amino]carbonyl}-7-oxabicyclo[2.2.1]hept-5-ene-2-carboxylic acid] | > 300
7 | N#Cc1c(O)nc(SCC(=O)Nc2nnc(C(F)(F)F)s2)nc1-c1ccccc1 [2-[(5-cyano-4-oxo-6-phenyl-1H-pyrimidin-2-yl)sulfanyl]-N-[5-(trifluoromethyl)-1,3,4-thiadiazol-2-yl]acetamide] | > 300
8 | CN(Cc1c(C(=O)NN=Cc2cccc(F)c2)nnn1-c1nonc1N)c1ccccc1 [MLS001141039] | 15.6
9 | CCOC(=O)N1CCN(S(=O)(=O)c2cc(Br)cc3c2N(C(=O)C2CC2)CC3)CC1 [ethyl 4-[(5-bromanyl-1-cyclopropylcarbonyl-2,3-dihydroindol-7-yl)sulfonyl]piperazine-1-carboxylate] | > 300
10 | O=C(CCC1COc2ccccc2O1)NCC1COc2ccccc2O1 (stereo not given) | > 300
11 | O=C(CN1CCN(S(=O)(=O)c2ccccc2)CC1)Nc1ccc([N+](=O)[O-])cc1 [2-[4-(benzenesulfonyl)-1-piperazinyl]-N-(4-nitrophenyl)acetamide] | > 300
12 | Cc1nnc2n(-c3ccccc3)c(=O)c3c4c(sc3n12)CCCC4 [MLS000071277] | > 300
13 | O=C(O)c1ccccc1Nc1ccnc(Cl)n1 [2-[(2-chloro-4-pyrimidinyl)amino]benzoic acid] | > 300
14 | COc1ccc(Nc2nc(N)nc(CSc3nncn3C)n2)cc1 [N-(4-methoxyphenyl)-6-{[(4-methyl-4H-1,2,4-triazol-3-yl)thio]methyl}-1,3,5-triazine-2,4-diamine] | 41.3
15 | COCCn1c(SCC(=O)Nc2ccccc2OC)nc2ccccc21 [SMR000377677] | > 300
16 | CCN(CC)Cc1c(C(=O)NN=Cc2ccccn2)nnn1-c1nonc1N | 9.91
17 | COc1ccc2c(c1)cc1c(=O)n(CC(=O)NCCCN3CCOCC3)nc(C)n12 [SMR000624522] | > 300

Other lines, results leading:

Row | EC50 [µM] | Structure (SMILES)
18 | > 300 | CN1CCc2c(sc3c2C(=O)NC(c2cccs2)N3)C1 (stereo not given)
19 | 0.775 | CC1=C(C#N)C(=O)NC(=O)C1=NNc1cccc(C)c1 [(5Z)-4-methyl-5-[(3-methylphenyl)hydrazinylidene]-2,6-bis(oxidanylidene)pyridine-3-carbonitrile]
20 | > 300 | CCOC(=O)c1nnn(CC(=O)Nc2cccc(OC)c2)c1C(=O)OCC
21 | > 300 | O=C1Nc2cc(C(=O)NCC3CCCO3)ccc2S/C1=C/c1ccccc1F (stereo not given)
22 | > 300 | CC(=O)N1CCC(=O)Nc2ccc([N+](=O)[O-])cc21 [MLS000728217]
23 | 4.11 | Cc1cccc(Nc2nc(NCC3CCCO3)nc(N)c2[N+](=O)[O-])c1 (stereo not given) [5-Nitro-N-(tetrahydro-furan-2-ylmethyl)-N'-m-tolyl-pyrimidine-2,4,6-triamine]
24 | > 300 | Cc1ccc(C(=O)NN=Cc2ccc(-c3ccc(Cl)c(Cl)c3)o2)cn1 [SMR000431370]
25 | > 300 | O=C(O)c1cccc(Nc2ccnc(Nc3cccc(C(=O)O)c3)n2)c1 [MLS001213333]
